The target of test [1] is Calcium/calmodulin-dependent protein kinase type II subunit delta (Homo sapiens, UniProt Q13557).
A further test addresses T1, Aurora kinase A (Homo sapiens, UniProt O14965).
T1 sequence (O14965 whole entry): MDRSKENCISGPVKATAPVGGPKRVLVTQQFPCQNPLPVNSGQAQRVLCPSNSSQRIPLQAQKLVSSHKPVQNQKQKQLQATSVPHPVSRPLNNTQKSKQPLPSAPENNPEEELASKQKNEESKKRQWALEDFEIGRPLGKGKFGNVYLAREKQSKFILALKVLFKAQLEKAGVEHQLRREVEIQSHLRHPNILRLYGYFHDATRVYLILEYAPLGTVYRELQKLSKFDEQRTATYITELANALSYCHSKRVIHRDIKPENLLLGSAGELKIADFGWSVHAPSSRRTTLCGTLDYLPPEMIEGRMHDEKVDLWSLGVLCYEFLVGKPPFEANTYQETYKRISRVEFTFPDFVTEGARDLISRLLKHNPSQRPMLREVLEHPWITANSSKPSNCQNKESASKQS

Test [2] deals with T2, Phosphorylase b kinase gamma catalytic chain, liver/testis isoform (Homo sapiens, UniProt P15735).
T2 sequence (P15735 whole entry): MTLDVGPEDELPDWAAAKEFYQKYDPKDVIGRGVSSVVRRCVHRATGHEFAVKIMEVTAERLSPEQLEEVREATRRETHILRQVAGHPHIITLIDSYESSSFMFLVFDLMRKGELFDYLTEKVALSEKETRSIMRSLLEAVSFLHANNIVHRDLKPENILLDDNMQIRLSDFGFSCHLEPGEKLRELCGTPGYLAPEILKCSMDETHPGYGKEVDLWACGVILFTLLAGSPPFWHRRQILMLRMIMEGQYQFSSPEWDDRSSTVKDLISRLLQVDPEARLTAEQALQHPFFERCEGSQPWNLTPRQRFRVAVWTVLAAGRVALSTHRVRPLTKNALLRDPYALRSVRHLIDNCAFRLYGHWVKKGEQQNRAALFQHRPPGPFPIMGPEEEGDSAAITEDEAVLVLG

The target of test [3] is Serine/threonine-protein kinase/endoribonuclease IRE1 (Homo sapiens, UniProt O75460).
Test [4] has as its target Casein kinase I isoform epsilon (Homo sapiens, UniProt P49674).
The target of test [5] is Serine/threonine-protein kinase N1 (Homo sapiens, UniProt Q16512).
Test [6] deals with T3, Eukaryotic translation initiation factor 5B (Homo sapiens, UniProt O60841).
T3 sequence (O60841 whole entry): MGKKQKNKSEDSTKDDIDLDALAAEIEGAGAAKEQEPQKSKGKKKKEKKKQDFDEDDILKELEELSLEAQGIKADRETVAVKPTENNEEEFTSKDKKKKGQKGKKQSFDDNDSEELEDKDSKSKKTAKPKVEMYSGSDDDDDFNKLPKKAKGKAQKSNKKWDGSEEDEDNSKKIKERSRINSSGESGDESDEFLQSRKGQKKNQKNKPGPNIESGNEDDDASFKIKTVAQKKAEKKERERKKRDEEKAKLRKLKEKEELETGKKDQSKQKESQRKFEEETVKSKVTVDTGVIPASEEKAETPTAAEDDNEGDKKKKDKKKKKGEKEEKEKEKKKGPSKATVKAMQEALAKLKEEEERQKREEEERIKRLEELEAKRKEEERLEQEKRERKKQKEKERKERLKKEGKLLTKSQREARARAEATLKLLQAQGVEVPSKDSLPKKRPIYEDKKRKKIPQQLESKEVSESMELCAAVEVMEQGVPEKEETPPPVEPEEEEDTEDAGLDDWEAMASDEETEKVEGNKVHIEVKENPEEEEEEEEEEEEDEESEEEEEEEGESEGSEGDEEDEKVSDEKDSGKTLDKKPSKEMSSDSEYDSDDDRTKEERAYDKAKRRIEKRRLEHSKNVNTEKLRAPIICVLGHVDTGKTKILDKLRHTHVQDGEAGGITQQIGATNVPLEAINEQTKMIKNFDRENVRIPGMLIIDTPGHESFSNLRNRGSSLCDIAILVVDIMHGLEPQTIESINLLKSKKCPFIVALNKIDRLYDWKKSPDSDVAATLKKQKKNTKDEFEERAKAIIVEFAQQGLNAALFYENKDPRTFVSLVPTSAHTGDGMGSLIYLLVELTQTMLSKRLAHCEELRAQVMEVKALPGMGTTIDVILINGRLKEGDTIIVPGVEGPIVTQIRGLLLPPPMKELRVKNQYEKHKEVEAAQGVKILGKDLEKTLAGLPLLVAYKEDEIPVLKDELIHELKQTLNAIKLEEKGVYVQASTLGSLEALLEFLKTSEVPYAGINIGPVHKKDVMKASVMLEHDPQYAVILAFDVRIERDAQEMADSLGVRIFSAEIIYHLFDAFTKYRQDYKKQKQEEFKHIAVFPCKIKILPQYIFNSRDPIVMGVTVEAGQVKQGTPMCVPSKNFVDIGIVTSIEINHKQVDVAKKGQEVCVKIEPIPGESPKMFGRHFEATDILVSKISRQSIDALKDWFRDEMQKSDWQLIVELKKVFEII

The target of test [7] is Putative heat shock protein HSP 90-beta 2 (Homo sapiens, UniProt Q58FF8).
In test [8] the target is Cyclin-dependent kinase 7 (Homo sapiens, UniProt P50613).
Test [9] deals with T4, Uncharacterized protein FLJ45252 (Homo sapiens, UniProt Q6ZSR9).
T4 sequence (Q6ZSR9 whole entry): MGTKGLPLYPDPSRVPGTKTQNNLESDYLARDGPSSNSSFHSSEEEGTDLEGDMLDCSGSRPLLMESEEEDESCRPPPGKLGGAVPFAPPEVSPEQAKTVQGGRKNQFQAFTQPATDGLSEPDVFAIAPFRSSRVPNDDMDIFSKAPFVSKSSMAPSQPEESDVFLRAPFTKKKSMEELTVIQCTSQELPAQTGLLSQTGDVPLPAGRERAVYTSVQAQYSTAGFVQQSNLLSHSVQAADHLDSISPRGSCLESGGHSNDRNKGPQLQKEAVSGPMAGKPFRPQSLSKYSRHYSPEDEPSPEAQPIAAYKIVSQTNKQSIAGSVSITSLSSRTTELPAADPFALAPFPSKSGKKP
The conditions noted are these: read-out: Kd apparent; k-562, colo 205, sk-n-be(2) and mv-4-11.

The target in test [10] is TRAF2 and NCK-interacting protein kinase (Homo sapiens, UniProt Q9UKE5).

In ChEMBL document CHEMBL3991601, “The target landscape of clinical kinase drugs” (Science, 2017) one finds Kd data, which are given here for ten compounds.

Calls of active or inactive are those of the source. Rule as the data show it, for most assays here: actives have a measured Kd and inactives only a lower limit.
Also: in the data inactive means no Kd found up to 30 µM.

Sequence of TRAF2 and NCK-interacting protein kinase (Q9UKE5 whole entry): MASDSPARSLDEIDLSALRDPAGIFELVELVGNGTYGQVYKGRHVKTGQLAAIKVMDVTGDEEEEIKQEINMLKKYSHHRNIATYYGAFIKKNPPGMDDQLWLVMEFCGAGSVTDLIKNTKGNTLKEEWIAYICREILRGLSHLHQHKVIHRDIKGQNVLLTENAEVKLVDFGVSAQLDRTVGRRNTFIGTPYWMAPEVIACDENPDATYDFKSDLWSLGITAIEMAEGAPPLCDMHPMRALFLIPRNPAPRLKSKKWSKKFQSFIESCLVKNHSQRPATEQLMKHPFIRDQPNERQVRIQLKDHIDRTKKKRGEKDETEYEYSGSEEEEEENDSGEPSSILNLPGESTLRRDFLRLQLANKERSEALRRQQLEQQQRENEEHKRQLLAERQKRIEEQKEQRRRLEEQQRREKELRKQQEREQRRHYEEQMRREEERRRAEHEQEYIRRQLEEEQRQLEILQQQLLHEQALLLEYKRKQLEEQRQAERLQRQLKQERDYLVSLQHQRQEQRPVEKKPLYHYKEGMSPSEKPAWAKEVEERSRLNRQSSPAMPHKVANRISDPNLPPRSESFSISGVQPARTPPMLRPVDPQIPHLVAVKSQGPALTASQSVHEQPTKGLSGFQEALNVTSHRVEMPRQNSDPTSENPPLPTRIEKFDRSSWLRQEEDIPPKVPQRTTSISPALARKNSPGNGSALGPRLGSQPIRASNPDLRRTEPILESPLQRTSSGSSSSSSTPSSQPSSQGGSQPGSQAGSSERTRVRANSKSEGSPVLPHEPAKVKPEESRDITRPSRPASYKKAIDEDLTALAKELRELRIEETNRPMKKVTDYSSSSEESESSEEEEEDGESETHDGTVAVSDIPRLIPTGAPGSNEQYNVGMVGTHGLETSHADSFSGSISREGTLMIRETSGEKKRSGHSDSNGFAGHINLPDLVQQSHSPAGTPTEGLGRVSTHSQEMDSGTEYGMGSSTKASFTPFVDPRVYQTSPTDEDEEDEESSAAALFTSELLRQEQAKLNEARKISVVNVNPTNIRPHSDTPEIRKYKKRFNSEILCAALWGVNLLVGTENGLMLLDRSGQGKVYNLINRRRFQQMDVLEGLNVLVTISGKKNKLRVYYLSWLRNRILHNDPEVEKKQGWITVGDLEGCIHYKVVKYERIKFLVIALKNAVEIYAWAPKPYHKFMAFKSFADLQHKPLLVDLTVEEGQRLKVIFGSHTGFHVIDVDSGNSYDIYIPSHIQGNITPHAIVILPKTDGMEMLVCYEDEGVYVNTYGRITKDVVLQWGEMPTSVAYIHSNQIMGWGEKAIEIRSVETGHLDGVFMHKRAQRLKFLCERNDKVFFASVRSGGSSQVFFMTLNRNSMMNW
Sequence of Serine/threonine-protein kinase N1 (Q16512 whole entry): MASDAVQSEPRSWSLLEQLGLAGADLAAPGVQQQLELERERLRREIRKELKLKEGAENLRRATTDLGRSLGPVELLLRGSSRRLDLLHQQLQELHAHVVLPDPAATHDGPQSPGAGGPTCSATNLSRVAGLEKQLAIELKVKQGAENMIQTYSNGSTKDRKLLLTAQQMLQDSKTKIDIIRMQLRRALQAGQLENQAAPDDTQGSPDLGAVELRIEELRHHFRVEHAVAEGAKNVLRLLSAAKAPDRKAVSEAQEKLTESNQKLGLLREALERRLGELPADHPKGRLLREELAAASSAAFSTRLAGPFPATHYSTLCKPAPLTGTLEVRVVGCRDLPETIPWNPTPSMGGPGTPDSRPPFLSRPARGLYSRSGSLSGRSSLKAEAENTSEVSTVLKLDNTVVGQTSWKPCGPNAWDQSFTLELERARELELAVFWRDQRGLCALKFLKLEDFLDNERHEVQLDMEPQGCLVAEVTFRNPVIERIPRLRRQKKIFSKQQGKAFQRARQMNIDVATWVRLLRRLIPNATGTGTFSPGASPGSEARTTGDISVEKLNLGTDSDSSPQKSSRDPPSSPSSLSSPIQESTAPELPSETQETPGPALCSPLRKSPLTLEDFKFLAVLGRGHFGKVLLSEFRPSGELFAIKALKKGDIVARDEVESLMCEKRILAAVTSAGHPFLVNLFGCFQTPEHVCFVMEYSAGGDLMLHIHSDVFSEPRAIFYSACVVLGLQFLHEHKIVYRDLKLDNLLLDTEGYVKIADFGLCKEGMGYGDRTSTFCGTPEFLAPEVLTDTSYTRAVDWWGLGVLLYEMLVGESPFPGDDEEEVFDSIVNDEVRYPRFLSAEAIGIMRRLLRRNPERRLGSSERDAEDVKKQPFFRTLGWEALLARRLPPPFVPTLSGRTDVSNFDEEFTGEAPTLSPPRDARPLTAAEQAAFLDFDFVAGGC
Sequence of Casein kinase I isoform epsilon (P49674 whole entry, canonical isoform): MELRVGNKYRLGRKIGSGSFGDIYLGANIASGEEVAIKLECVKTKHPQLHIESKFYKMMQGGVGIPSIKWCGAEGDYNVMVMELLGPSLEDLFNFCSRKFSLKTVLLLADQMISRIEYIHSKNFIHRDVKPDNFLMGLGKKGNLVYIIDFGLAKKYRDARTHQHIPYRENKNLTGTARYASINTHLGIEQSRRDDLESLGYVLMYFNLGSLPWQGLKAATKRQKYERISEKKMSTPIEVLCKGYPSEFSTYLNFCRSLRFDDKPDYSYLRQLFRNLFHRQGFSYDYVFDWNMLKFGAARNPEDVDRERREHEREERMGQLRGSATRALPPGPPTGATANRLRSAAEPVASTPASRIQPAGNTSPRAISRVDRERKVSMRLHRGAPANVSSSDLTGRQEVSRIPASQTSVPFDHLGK
Sequence of Putative heat shock protein HSP 90-beta 2 (Q58FF8 whole entry): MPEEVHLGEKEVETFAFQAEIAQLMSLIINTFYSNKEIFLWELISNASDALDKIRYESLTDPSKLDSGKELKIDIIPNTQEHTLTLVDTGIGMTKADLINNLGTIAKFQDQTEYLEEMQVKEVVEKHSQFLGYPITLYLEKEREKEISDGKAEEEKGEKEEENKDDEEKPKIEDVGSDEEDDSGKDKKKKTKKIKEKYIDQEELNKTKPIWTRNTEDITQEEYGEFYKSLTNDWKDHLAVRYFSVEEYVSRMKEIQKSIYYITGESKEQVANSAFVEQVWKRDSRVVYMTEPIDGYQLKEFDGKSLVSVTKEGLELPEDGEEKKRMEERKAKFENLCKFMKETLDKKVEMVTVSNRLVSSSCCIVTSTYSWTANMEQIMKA
Sequence of Cyclin-dependent kinase 7 (P50613 whole entry): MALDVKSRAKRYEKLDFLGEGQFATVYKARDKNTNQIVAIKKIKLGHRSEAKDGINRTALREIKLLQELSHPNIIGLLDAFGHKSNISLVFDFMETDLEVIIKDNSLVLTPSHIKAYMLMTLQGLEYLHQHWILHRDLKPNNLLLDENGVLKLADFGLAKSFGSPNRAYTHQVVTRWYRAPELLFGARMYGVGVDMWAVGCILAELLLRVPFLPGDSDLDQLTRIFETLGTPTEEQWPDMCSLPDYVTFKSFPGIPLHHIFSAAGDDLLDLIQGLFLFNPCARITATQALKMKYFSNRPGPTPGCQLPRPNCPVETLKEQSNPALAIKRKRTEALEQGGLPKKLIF
Sequence of Calcium/calmodulin-dependent protein kinase type II subunit delta (Q13557 whole entry): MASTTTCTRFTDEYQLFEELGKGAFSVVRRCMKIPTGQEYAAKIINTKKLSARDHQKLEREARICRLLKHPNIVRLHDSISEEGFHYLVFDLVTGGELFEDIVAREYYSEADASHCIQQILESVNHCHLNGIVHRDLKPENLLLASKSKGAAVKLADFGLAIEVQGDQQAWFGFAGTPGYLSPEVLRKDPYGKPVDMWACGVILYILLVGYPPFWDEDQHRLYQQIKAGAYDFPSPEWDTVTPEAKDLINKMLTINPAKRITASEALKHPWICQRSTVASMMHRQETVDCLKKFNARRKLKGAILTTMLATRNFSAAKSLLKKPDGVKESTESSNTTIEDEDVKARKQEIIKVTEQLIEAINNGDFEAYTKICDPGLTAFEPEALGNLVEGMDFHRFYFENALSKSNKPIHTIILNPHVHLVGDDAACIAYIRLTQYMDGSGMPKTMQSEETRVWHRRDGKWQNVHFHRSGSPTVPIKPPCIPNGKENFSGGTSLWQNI
Sequence of Serine/threonine-protein kinase/endoribonuclease IRE1 (O75460 whole entry, canonical isoform): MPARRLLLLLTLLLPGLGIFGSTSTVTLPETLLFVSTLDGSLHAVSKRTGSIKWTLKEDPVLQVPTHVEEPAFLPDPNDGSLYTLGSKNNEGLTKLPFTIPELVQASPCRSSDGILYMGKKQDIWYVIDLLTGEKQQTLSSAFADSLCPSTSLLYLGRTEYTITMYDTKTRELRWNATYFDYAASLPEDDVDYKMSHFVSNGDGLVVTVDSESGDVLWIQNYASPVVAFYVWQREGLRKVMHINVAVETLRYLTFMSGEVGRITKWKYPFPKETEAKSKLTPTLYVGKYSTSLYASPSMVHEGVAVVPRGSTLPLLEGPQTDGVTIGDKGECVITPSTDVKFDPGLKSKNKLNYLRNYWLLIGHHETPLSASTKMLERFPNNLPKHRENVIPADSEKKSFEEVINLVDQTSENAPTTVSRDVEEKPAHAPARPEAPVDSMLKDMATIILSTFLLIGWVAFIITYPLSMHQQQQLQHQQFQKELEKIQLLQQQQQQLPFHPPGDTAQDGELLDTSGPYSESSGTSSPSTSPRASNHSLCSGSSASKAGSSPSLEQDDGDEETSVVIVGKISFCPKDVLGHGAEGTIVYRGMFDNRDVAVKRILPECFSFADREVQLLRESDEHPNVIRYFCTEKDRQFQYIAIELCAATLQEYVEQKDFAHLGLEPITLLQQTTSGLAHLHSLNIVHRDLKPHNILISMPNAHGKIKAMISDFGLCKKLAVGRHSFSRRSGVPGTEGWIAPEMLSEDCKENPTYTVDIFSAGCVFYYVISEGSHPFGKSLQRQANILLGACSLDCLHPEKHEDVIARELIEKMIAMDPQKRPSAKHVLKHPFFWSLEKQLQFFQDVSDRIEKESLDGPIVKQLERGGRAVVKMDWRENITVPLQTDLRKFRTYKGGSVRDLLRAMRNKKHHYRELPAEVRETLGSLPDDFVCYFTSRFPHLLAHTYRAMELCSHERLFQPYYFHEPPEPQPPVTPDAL

`C[C@H]1CNCCCN1S(=O)(=O)c1cccc2cncc(F)c12`: the Kd in test [1] was > 30 µM (inactive); on Aurora kinase A, > 30 µM (inactive); in test [2] it was > 30 µM (inactive); in test [3], > 30 µM (inactive); in test [4] it was > 30 µM (inactive); in [5], 0.416 µM (active). Besides, the Kd in test [6], in test [7], in test [8], in test [9] and in test [10] was > 30 µM (inactive) in each case.

Consider `C=CC(=O)N1CCC[C@H](n2c(=O)n(-c3ccc(Oc4ccccc4)cc3)c3c(N)ncnc32)C1`, for which the Kd (in test [1]; at Aurora kinase A; in test [2]; in test [3]; in [4]; in [5]) was > 30 µM (inactive) throughout. Besides, the Kd in test [6], in test [7], in test [8], in [9] and in test [10] was > 30 µM (inactive) throughout.

In the case of `Cc1nc2cc(-c3nn(C(C)C)c4ncnc(N)c34)ccc2o1`, the Kd in [1] is > 30 µM (inactive); at Aurora kinase A, > 30 µM (inactive); in [2] it was > 30 µM (inactive); in test [3], > 30 µM (inactive); in test [4], 0.158 µM (active); in test [5] it was > 30 µM (inactive). In addition, the Kd in [6], in test [7], in test [8], in test [9] and in test [10] was > 30 µM (inactive) in each case.

`Cc1nc(NC(=O)N2CCC[C@H]2C(N)=O)sc1-c1ccnc(C(C)(C)C(F)(F)F)c1` [ALPELISIB]: the Kd (in test [1]; on Aurora kinase A; in test [2]; in [3]; in test [4]; in test [5]) was > 30 µM (inactive) in each case. Moreover, the Kd in [6], in test [7], in [8], in test [9] and in test [10] was > 30 µM (inactive) throughout.

`C=CC(=O)Nc1cc2c(Nc3ccc(F)c(Cl)c3)ncnc2cc1C#CC(C)(C)N1CCN(C)CC1` [AV-412 FREE BASE]: the Kd (in test [1]; on Aurora kinase A; in test [2]; in [3]; in test [4]; in test [5]) was > 30 µM (inactive) in each case. The Kd in [6], in test [7], in test [8], in [9] and in test [10] was > 30 µM (inactive) throughout.

With `Cc1cc(C(=O)NOCCO)c(Nc2ccc(I)cc2F)n(C)c1=O` [AZD-8330], the Kd (in [1]; on Aurora kinase A; in test [2]; in [3]; in test [4]; in [5]) was > 30 µM (inactive) in each case. Besides, the Kd in [6], in test [7], in test [8], in [9] and in [10] was > 30 µM (inactive) in each case.

Turning to `Cn1cnc2c(F)c(Nc3ccc(Br)cc3F)c(C(=O)NOCCO)cc21` [BINIMETINIB], the Kd (in [1]; at Aurora kinase A; in test [2]; in [3]; in test [4]; in test [5]) was > 30 µM (inactive) in each case. In addition, the Kd in test [6], in [7], in test [8], in [9] and in test [10] was > 30 µM (inactive) in each case.

Consider `COc1c(OCCCN2CCOCC2)ccc2c1N=C(NC(=O)c1cnc(N)nc1)N1CCN=C21` [COPANLISIB], for which the Kd (in [1]; on Aurora kinase A; in test [2]; in [3]; in [4]; in [5]) was > 30 µM (inactive) each time. In addition, the Kd in test [6], in [7], in test [8] and in [10] was > 30 µM (inactive) each time.

For the compound `O=C(Nc1nc2cccc(-c3ccc(CN4CCS(=O)(=O)CC4)cc3)n2n1)C1CC1` [FILGOTINIB], the Kd (in [1]; on Aurora kinase A; in test [2]; in test [3]; in test [4]; in test [5]) was > 30 µM (inactive) throughout. The Kd in test [6], in test [7], in test [8] and in [10] was > 30 µM (inactive) each time.

As for `CC(C)c1cc(CNc2nc(Nc3cc(C4CC4)[nH]n3)cc(N3CCN(C)CC3)n2)on1` [XL-228], the Kd is > 30 µM (inactive) in test [1]; 0.003 µM (active) on Aurora kinase A; 2.41 µM (active) in [2]; > 30 µM (inactive) in test [3]; > 30 µM (inactive) in test [4]; 0.011 µM (active) in test [5]. The Kd was > 30 µM (inactive) in test [6], > 30 µM (inactive) in test [7], 1.44 µM (active) in test [8] and 0.184 µM in test [10].
